{"source": "paper PMC10449633", "about": "(Nature Chemical Biology, 2023)", "system": "SARS-CoV-2 spike protein", "format": "cell-based", "note": "Numbered stars: 1 amine (or outer) side, 2 acyl side, 3 side chain; on linkers, the order of the positions; unused ones are H or OH. Square brackets hold non-standard residues; d marks the D form. Peptide text beside a SMILES is read from it. ξ: configuration not given here. X1 = CN(C(Cc1cn(Cc2ccc(Br)cc2)c2ccccc12)C(=O)[*:2])[*:1]; ξAla(CF3) = NC(CC(F)(F)F)C(=O)O; X2 = N#CCCC(O[*:1])C(=O)[*:2]; NMeL = CN[CH](CC(C)C)C(=O)O; NMeA = CN[CH](C)C(=O)O"}
{"molecule": "CC(C)CC1NC(=O)C(Cc2cn(Cc3ccc(Br)cc3)c3ccccc23)N(C)C(=O)C(CC(F)(F)F)NC(=O)C(CC(C)C)N(C)C(=O)C(CC(F)(F)F)NC(=O)C(CCC#N)OC(=O)C(C)N(C)C1=O", "note": "(stereo not shown) [KZR-8445] (cyclo([X1]L[NMeA][X2][ξAla(CF3)][NMeL][ξAla(CF3)]); configuration not given here)", "values": [{"measurement": "biogenesis of the Spike protein", "value": "inhibits"}]}
